# Patent US12403326B2, “System for corneal cross-linking and correcting vision by using LED contact lens and eye dye” (PHI BIOMED INC., priority 2019, dated 2025)
# Tests used:
# bovine cornea [1] = experiment: Corneal strength, Young's modulus using Instron equipment; settings: bovine cornea after collagen crosslinking; untreated Control 1.76
# Experimental: (§1) Hyaluronic acid or a hyaluronic acid-Rose Bengal conjugate were dropped on the bovine cornea at 5-minute intervals for 30 minutes, and a 532-nm laser was irradiated for 30 minutes to induce crosslinking between corneal collagen. Afterward, corneal tissue was fixed with formalin, and stained with H&E, followed by observation under a microscope.
# In addition, the bovine cornea in which collagen crosslinking was induced was extracted, and then the Young's modulus of the cornea was measured using Instron equipment to analyze the strength of the cornea.
# bovine cornea [2] = experiment: Corneal bonding of wounded cornea, intraocular pressure by tonometer after 532-nm laser; settings: wounded bovine eye; dropped at 5-minute intervals for 30 minutes, 532-nm laser for 30 minutes
# Experimental: After approximately […] wound was made in the bovine cornea, the pressure in the bovine eye was measured using a tonometer. Afterward, each of a hyaluronic acid-Rose Bengal conjugate solution and a Rose Bengal solution was dropped on the wound-induced region at 5-minute intervals for 30 minutes, and a 532-nm laser was irradiated for 30 minutes to induce crosslinking between corneal collagen to bond. Likewise, an intraocular pressure was measured after bonding by a laser using a tonometer.
# By comparing the intraocular pressure before and after bonding, it was confirmed whether bonding was formed.
# bovine cornea [3] = experiment: Corneal thickness from H&E stained corneal tissue after collagen crosslinking; settings: decreased from 1000 μm; dropped for 30 minutes, 532-nm laser for 30 minutes; H&E images
# Experimental: as §1
# bovine cornea [4] = experiment: Corneal permeability by two-photon image analysis; format: in vitro ADME; settings: dropped on bovine cornea at 5-minute intervals for 30 minutes; two-photon imaging
# Experimental: The hyaluronic acid-Rose Bengal conjugate synthesized in Example 1 was dropped on the bovine cornea at 5-minute intervals for 30 minutes. As a comparative group, a pure Rose Bengal solution was dropped in the same manner as described above.
# Afterward, two-photon image analysis was performed by extracting the cornea from the bovine cornea.
smiles,measurement,setting,value
O=C([O-])c1c(Cl)c(Cl)c(Cl)c(Cl)c1-c1c2cc(I)c(=O)c(I)c-2oc2c(I)c([O-])c(I)cc12.[Na+].[Na+] [Rose Bengal],Young's modulus of the cornea,bovine cornea [1],2.75
same,increase in maximum intraocular pressure compared to not treated,bovine cornea [2],approximately two
same,corneal thickness after treatment,bovine cornea [3],750 μm
same,depth up to which fluorescence was shown in the cornea (corneal permeability),bovine cornea [4],400 μm
